Marks after values point to notes of the source that are not given here.
Assays:
influenza virus = test: Impact of the drugs on the virus-induced cytopathy (MTT); format: cell-based; settings: influenza virus 100 TCID50, Vero cells, about the maximal non-cytotoxic concentration, 72 hours
parainfluenza virus = test: as above; format: cell-based; settings: parainfluenza virus 100 TCID50, Vero cells, about the maximal non-cytotoxic concentration, 72 hours
[1] = tested on: Coxsackie virus A16 (CoxA16); test: as above; format: cell-based; settings: CoxA16 100 TCID50, Vero cells, about the maximal non-cytotoxic concentration, 72 hours
[2] = tested on: respiratory syncytial virus (RSV); test: as above; format: cell-based; settings: RSV 100 TCID50, Vero cells, about the maximal non-cytotoxic concentration, 72 hours
[3] = tested on: Herpes Simplex Virus type I (HSV-1); test: as above; format: cell-based; settings: HSV-I 100 TCID50, Vero cells, about the maximal non-cytotoxic concentration, 72 hours
Enterovirus EV71 = test: as above; format: cell-based; settings: EV71 100 TCID50, Vero cells, about the maximal non-cytotoxic concentration, 72 hours
[4] = tested on: coxsackie virus B3 (CVB3); test: as above; format: cell-based; settings: CVB3 100 TCID50, Vero cells, about the maximal non-cytotoxic concentration, 72 hours
[5] = tested on: sweat secretion of rat paw part; test: Sweat secretion of rat paw part (coloring method); format: in vivo, Wistar rats; settings: 300.0 mg/kg intragastric; for Animal number of sweat points of level +: + = sweat area below about 10%; for Animal number of sweat points of level ++: ++ = sweat area about 11-40%; for Animal number of sweat points of level +++: +++ = sweat area about 41-70%; for Animal number of sweat points of level ++++: ++++ = sweat area over 71%; for Animal number of sweat points of level −: − = no sweat point
From the text: This test was designed to observe the change of sweat secretion based on the mechanism that sweat gland is distributed on the rat paw pads, and iodine and starch can have purple reaction when encountered with sweat. In the test, 350 Wistar rats were selected, with equal male and female number, weighing 120-150 g. […] The rats were placed in a self-made rat fixation bag, with the double hind limbs exposed. The dirts on the right paw was gently scrubbed clean with the cotton swab dipped with anhydrous ethanol. Besides that subcutaneous injection was used for the pilocarpine solution, intragastric administration was used for all the other groups. […] When the test was complete, statistical process was carried out according to the rank-sum test with two-sample comparison, in order to compare the difference between the groups.

[6] = tested on: sweat gland epithelial cells at the rat toe part; test: Sweat secretion of rat paw part (tissue morphology observation method); format: in vivo, Wistar rats; settings: rat toe part; 300.0 mg/kg intragastric
From the text: This test was based on the mechanism that when rat sweat gland is excited, in addition to sweat secretion increase, the morphology of sweat gland epithelial cell is also changed. The number increase and expansion of empty cells of the sweat gland epithelial cells can be seen under the optical microscope. Such enlarged vacuole presents mitochondrial in sweat gland epithelial cells swelling, rupture, fusion and secretory vesicle enlargement under the electron microscope, and through the morphological observation of the sweat gland epithelial cell at the rat paw part, the secretory activity of the sweat gland can be known. In the test, 70 Wistar rats were selected, with equal male and female number, weighing 120-160 g. […] Besides that subcutaneous injection was used for the pilocarpine solution, intragastric administration was used for all the other groups.

[7] = tested on: mice pain induced by acetic acid; test: Analgesic test, mice writhing induced by acetic acid; format: in vivo, Kunming mice; settings: 300 mg/kg intragastric; within 15 min after 0.7% acetic acid
Procedure: 72 Kunming mice were randomly divided into 6 groups, with 12 mice for each group. (1) the blank normal control group (i.e. saline group, […]); (2) positive drug aspirin group (200 mg/kg); (3) ibuprofen group (300 mg/kg); (4) high dose group of phillygenin ibuprofen ester (300 mg/kg); (5) medium dose group of phillygenin ibuprofen ester (150 mg/kg); (6) low dose group of phillygenin ibuprofen ester (75 mg/kg). […] The number of mice writhings within 15 min after administration was recorded. The number of writhings was taken as the evaluation index to evaluate the analgesic effect.

[8] = after coating B liquid for 1 minute
[9] = after coating B liquid for 5 minutes
[10] = after coating B liquid for 10 minutes
[11] = after coating B liquid for 15 minutes (Table 2-4)
[12] = after coating B liquid for 15 minutes (Table 2-5)

SMILES: CC(C)Cc1ccc(C(C)C(=O)O)cc1 (centres unmarked) [Ibuprofen]
- antiviral effective rate (ER %) (influenza virus): 75.35** %
- antiviral effective rate (ER %) (parainfluenza virus): 80.72** %
- antiviral effective rate (ER %) [1]: 50.04%
- antiviral effective rate (ER %) [2]: 80.88** %
- antiviral effective rate (ER %) [3]: 84.30** %
- antiviral effective rate (ER %) (Enterovirus EV71): 75.86** %
- antiviral effective rate (ER %) [4]: 50.89%
- Animal number of sweat points of level + [5, 8]: 1
- Animal number of sweat points of level ++ [5, 8]: 3
- Animal number of sweat points of level +++ [5, 8]: 1
- Animal number of sweat points of level ++++ [5, 8]: 5
- Animal number of sweat points of level − [5, 8]: 0
- Animal number of sweat points of level + [5, 9]: 2
- Animal number of sweat points of level ++ [5, 9]: 1
- Animal number of sweat points of level +++ [5, 9]: 2
- Animal number of sweat points of level ++++ [5, 9]: 5
- Animal number of sweat points of level − [5, 9]: 0
- Animal number of sweat points of level + [5, 10]: 1
- Animal number of sweat points of level ++ [5, 10]: 2
- Animal number of sweat points of level +++ [5, 10]: 2
- Animal number of sweat points of level ++++ [5, 10]: 5
- Animal number of sweat points of level − [5, 10]: 0
- Animal number of sweat points of level + [5, 11]: 1
- Animal number of sweat points of level ++ [5, 11]: 2
- Animal number of sweat points of level +++ [5, 11]: 2
- Animal number of sweat points of level ++++ [5, 11]: 5
- Animal number of sweat points of level − [5, 11]: 0
- Animal number of sweat points of level + [5, 12]: 1
- Animal number of sweat points of level ++ [5, 12]: 2
- Animal number of sweat points of level +++ [5, 12]: 2
- Animal number of sweat points of level ++++ [5, 12]: 5
- Animal number of sweat points of level − [5, 12]: 0
- Number of sweat glands of vacuole [6]: 57
- Void fraction (%) [6]: 27.40*** %
- Writhing times [7]: 9.7*

From patent US9963461B2, “Phillygenin ibuprofen ester, preparation method therefor, and application thereof” (priority 2014, dated 2018)
